Data on 13 compounds can be found in patent US7323496B2, “Compounds for treatment of inflammation, diabetes and related disorders” (Theracos, Inc., priority 1999, dated 2008).

The test system of one data set is IL-1 beta. Nature of the data set: Inhibition of LPS-induced IL-1 beta production in RAW264.7 cells (ELISA). The class given is cell-based, mouse. The settings on record: RAW264.7, 10, 30 or 100 μM, LPS 0.1 μg/ml 6 hours; same approximate magnitude as dexamethasone 1 μM, FIG. 6.
Data set [1] concerns 3T3-L1 adipocytes. Nature of the data set: Insulin-stimulated glucose uptake in 3T3-L1 adipocytes. Particulars: 5 μM, 48 hours, different concentrations of insulin, versus vehicle, FIG. 2. The data set is classed as cell-based, mouse.
A further data set deals with iNOS. Nature of the data set: Inhibition of LPS-induced iNOS production in RAW264.7 cells (Western blot). The data set is classed as cell-based, mouse. The settings on record: RAW264.7, 10, 30 or 100 μM, FIG. 8.
The subject of a further data set is IL-6. Nature of the data set: Inhibition of LPS-induced IL-6 production in RAW264.7 cells (ELISA). The data set is classed as cell-based, mouse. Particulars: RAW264.7, 10, 30 or 100 μM, LPS 0.1 μg/ml 6 hours; greater than dexamethasone 1 μM, FIG. 7. On the technique in general: An ELISA detects its analyte on a solid surface through an enzyme-linked reagent.
The test system of data set [2] is TNF-alpha. In words: Inhibition of LPS-induced TNF-alpha production in RAW264.7 cells (ELISA). The class given is cell-based, mouse. The settings on record: RAW264.7, 10, 30 or 100 μM, LPS 0.1 μg/ml 6 hours; effect approached dexamethasone 1 μM, FIG. 5.
The subject of another data set is COX-1. In words: COX-1 production in LPS-stimulated RAW264.7 cells (Western blot). The class given is cell-based, mouse. Particulars: LPS-stimulated RAW264.7, 10, 30 or 100 μM, FIG. 8. On the technique in general: In western blotting, separated proteins are transferred to a membrane and probed.
The subject of a further data set is COX-2. In words: Inhibition of LPS-induced COX-2 production in RAW264.7 cells (Western blot). The data set is classed as cell-based, mouse. Particulars: LPS-stimulated RAW264.7, 10, 30 or 100 μM, FIG. 8.
Data set [3] concerns ob/ob mice. Nature of the data set: Glucose-lowering effect in ob/ob mice. The data set is classed as in vivo, mouse. The settings on record: 10 mg/kg daily oral, p<0.05.
Data set [4] relates to 3T3-L1 adipocytes. In words: Glucose uptake in 3T3-L1 differentiated adipocytes (14C-deoxyglucose). The data set is classed as cell-based, mouse. Particulars: 48 hours with different concentrations, percentage of basal level, FIG. 1.
Data set [5] has as its system ob/ob mice. Nature of the data set: Lipid-lowering effects in ob/ob mice. The class given is in vivo, mouse. Particulars: 10 mg/kg daily oral, day 8, versus vehicle, p<0.05.
In data set [6] the test system is 3T3-L1 adipocytes. Nature of the data set: Stimulation of glucose uptake in differentiated 3T3-L1 adipocytes with 100 nM insulin. The data set is classed as cell-based. The settings on record: Mus musculus, 48 h, vehicle set at 100%, read-out: Percent Stimulation of Glucose Uptake.
The test system of a further data set is p44/42 MAP kinase. In words: Inhibition of LPS-induced phosphorylation of p44/42 MAP kinase in RAW 264.7 gamma NO(-) cells (Western blot). The data set is classed as cell-based, mouse. The settings on record: data not shown.
In a further data set the target is T1, PDE3 (Homo sapiens, UniProt Q14432).
T1 construct: PDE3 partially purified from human platelets were used; from tissue; host or cells: human platelets
T1 sequence (Q14432 whole entry): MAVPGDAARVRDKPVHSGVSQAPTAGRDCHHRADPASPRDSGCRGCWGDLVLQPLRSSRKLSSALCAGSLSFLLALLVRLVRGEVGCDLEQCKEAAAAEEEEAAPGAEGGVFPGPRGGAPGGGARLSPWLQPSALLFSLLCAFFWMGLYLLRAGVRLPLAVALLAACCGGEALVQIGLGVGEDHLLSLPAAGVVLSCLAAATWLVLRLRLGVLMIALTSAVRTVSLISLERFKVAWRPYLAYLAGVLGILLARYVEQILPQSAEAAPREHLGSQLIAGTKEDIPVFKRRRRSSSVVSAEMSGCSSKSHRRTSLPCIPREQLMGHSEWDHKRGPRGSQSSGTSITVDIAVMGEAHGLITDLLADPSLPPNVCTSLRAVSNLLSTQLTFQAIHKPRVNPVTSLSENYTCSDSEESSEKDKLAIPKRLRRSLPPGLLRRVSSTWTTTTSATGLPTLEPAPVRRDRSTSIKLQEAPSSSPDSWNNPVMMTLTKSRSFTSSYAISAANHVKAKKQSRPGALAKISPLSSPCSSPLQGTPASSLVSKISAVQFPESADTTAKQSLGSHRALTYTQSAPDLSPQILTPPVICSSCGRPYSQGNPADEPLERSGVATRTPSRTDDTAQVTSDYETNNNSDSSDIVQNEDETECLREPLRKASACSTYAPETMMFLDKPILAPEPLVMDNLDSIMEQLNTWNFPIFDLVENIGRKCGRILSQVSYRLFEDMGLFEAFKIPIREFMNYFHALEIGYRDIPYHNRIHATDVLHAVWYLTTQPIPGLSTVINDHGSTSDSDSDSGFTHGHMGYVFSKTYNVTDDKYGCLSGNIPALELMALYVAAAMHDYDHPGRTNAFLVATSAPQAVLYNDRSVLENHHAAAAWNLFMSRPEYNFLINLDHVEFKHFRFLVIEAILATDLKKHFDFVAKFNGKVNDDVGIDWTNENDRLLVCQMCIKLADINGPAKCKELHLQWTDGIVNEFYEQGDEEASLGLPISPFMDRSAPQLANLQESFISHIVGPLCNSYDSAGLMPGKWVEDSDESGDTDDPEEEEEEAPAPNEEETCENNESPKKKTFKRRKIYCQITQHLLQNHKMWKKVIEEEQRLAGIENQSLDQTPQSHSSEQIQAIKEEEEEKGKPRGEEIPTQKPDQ
In words: Inhibition of PDE3 enzyme activity. The class given is biochemical. The settings on record: PDE3 from human platelets.

The next data set relates to PDE4. Nature of the data set: Inhibition of PDE4 enzyme activity. The data set is classed as biochemical, human. Particulars: for Percent Inhibition of Enzyme Activity, PDE4: PDE4 from human U-937 cells, 1 μM cAMP.
For another data set, the system named is DBA/1J mice. In words: Collagen-induced arthritis in mice. Particulars: for arthritis clinical score (severity) compared with vehicle controls: FIG. 9. The data set is classed as in vivo, mouse.
Data set [7] deals with TNF-alpha. Nature of the data set: Inhibition of LPS-induced TNF-alpha production in mice (plasma ELISA). Particulars: summary in words of Table 6, 50 or 100 mg/kg oral. The data set is classed as in vivo, mouse.
For data set [8], the system named is human elutriated monocytes. Nature of the data set: Cell viability of human monocytes (MTS/PMS assay). The data set is classed as cell-based. The settings on record: 30 μM.
Setting [9] is: low dose 40 mg/kg oral twice daily for 14 days.

For the compound `COC(=O)C(=Cc1cc(OC)cc(OC)c1)c1ccc(Oc2ccc(CCC(=O)NC(N)=O)cc2)cc1` [Compound 1, 3-(3,5-dimethoxyphenyl)-2-{4-[4-(3-oxo-3-ureidopropyl)-phenoxy]-phenyl}-acrylyc acid methyl ester], the “inhibition of LPS-induced production of IL-1 beta” value in the data set with IL-1 beta is given as “significantly inhibited”. Also, the “stimulation of glucose uptake by insulin” value in the data set with 3T3-L1 adipocytes [1] is on record as “enhanced”. Moreover, the “inhibition of LPS-induced iNOS production” value with iNOS is “dose-dependent inhibition”. Also, the “inhibition of LPS-induced production of IL-6” value in the data set with IL-6 is recorded as “significantly inhibited”. For the same compound, the “inhibition of LPS-induced production of TNF-alpha” value in the data set on TNF-alpha [2] is on record as “significantly inhibited”. The “inhibition of production of COX-1” value in the data set with COX-1 is “but not COX-1”. Besides, the “inhibition of production of COX-2” value in the data set on COX-2 is “selectively inhibited”. The “decrease in blood glucose levels” value with ob/ob mice [3] (day 6, versus vehicle) was determined as 36%; with ob/ob mice [3] (day 8, versus vehicle), 23%. In the data set with 3T3-L1 adipocytes [4], the glucose uptake result is on record as “dose-dependent increase”. The “decrease in free fatty acids” value in the data set on ob/ob mice [5] is on record as 19%. In addition, the “decrease in serum triglycerides” value with ob/ob mice [5] is reported as 49%.

`CCOC(=O)NC(=O)CCc1ccc(Oc2ccc(/C(=C\c3cc(OC)cc(OC)c3)C(=O)OC)cc2)cc1` [Compound 8, 3-(3,5-dimethoxyphenyl)-2-{4-[4-(3-ethoxycarbonylamino-3-oxo-propyl)-phenoxy]-phenyl}-acrylic acid methyl ester]: in the data set with 3T3-L1 adipocytes [6], the activity at 0.1 µM was determined as 115%, the activity at 1 µM is 132% and the activity at 10 µM came to 171%.

Turning to `COc1cc(/C=C(/C(=O)N(C)C)c2ccc(Oc3ccc(CCC(=O)NC(N)=O)cc3)cc2)cc(OC)c1` [Compound 13, 3-(3,5-dimethoxyphenyl)-N,N-dimethyl-2-{4-[4-(3-oxo-3-ureido-propyl)-phenoxy]-phenyl}-acrylamide], in the data set with p44/42 MAP kinase (30 μM and 10 μM, LPS 10 ng/ml / IFN-gamma 10 U/ml 15 min), the “inhibition of LPS/IFN-gamma induced phosphorylation of p44/42” value is listed as “dose-dependent manner”. Besides, the “inhibition of LPS-induced phosphorylation of p44/42 MAP kinase” value in the data set on p44/42 MAP kinase (30 μM, LPS 10 ng/ml 15 min) is “inhibited”. Further, the IC50 (usually the point on the concentration scale where inhibition reaches its midpoint) is 13.6 µM against PDE3 and under 1 µM against PDE4 (PDE4 from human U-937 promonocytic cells). Moreover, the “Percent Inhibition of Enzyme Activity, PDE4” value is listed as 85% with PDE4 (1 μM), 98% in the data set with PDE4 (10 μM) and 102% in the data set with PDE4 (30 μM).

As to `COC(=O)NCc1ccc(Oc2ccc(/C(=C\c3cc(OC)cc(OC)c3)C(=O)N(C)C)cc2)cc1` [Compound 29, (4-{4-[2-(3,5-dimethoxyphenyl)-1-dimethylcarbamoyl-vinyl]-phenoxy}-benzyl)-carbamic acid methyl ester], in the data set on 3T3-L1 adipocytes [6], the activity at 0.1 µM was 106%, the activity at 1 µM turned out to be 124% and the activity at 10 µM was 120%.

Regarding `COc1cc(/C=C(/C(=O)N(C)C)c2ccc(Oc3ccc(CCC(N)=O)cc3)cc2)cc(OC)c1` [Compound 31, 2-{4-[4-(2-Carbamoylethyl)-phenoxy]-phenyl}-3-(3,5-dimethoxyphenyl)-N,N-dimethylacrylamide], the hind limb histology entry with DBA/1J mice (high dose 100 mg/kg oral twice daily for 14 days) was “reduction in incidence and severity of pannus formation, inflammation cell infiltration and bone/cartilage damage”. The “arthritis clinical score (severity) compared with vehicle controls” value in the data set on DBA/1J mice (high dose 100 mg/kg oral twice daily for 14 days, about same extent as dexamethasone) is recorded as “prevented the increase in severity”. For the same compound, in the data set on DBA/1J mice (setting [9]), the hind limb histology entry is “marked chronic inflammation of synovium with pannus formation and destruction of bone and cartilage”; the “arthritis clinical score (severity) compared with vehicle controls” value is given as “no apparent effect”. Moreover, the “inhibition of LPS-induced TNF-alpha production in mice” value with TNF-alpha [7] is given as “significantly inhibited”. Besides, in the data set with 3T3-L1 adipocytes [6], the activity at 0.1 µM stood at 107%, the activity at 1 µM was determined as 119% and the activity at 10 µM worked out at 161%.

For `COc1cc(/C=C(/C(=O)N(C)C)c2ccc(Oc3ccc(CCC(=O)N4CCOCC4)cc3)cc2)cc(OC)c1` [Compound 40, 3-(3,5-Dimethoxyphenyl)-N,N-dimethyl-2-{4-[4-(3-morpholin-4-yl-3-oxopropyl)-phenoxy]phenyl}-acrylamide], in the data set with 3T3-L1 adipocytes [6], the activity at 0.1 µM was determined as 126%, the activity at 1 µM was 117% and the activity at 10 µM was found to be 126%.

With `COc1cc(/C=C(/C(=O)N2CCCCC2)c2ccc(Oc3ccc(CCC(=O)NC(N)=O)cc3)cc2)cc(OC)c1` [Compound 51, [3-(4-{4-[2-(3,5-dimethoxyphenyl)-1-(piperidine-1-carbonyl)-vinyl]-phenoxy}-phenyl)-propionyl]-urea], the Cell viability result in [8] was “* (Cell viability <70%)”. For the same compound, in the data set on 3T3-L1 adipocytes [6], the activity at 0.1 µM is 93%, the activity at 1 µM was 107% and the activity at 10 µM stood at 136%.

With `CC(=O)NC(=O)CCc1ccc(Oc2ccc(/C(=C\c3ccc(F)cc3)C(=O)N(C)C)cc2)cc1` [Compound 56, 2-{4-[4-(3-acetylamino-3-oxopropyl)-phenoxy]-phenyl}-3-(4-fluorophenyl)-N,N-dimethylacrylamide], in the data set on 3T3-L1 adipocytes [6], the activity at 0.1 µM was found to be 83%, the activity at 1 µM is 100% and the activity at 10 µM is 126%.

As for `COc1cc(/C=C(/C(=O)Nc2ccncc2)c2ccc(Oc3ccc(CCC(=O)NC(N)=O)cc3)cc2)cc(OC)c1` [Compound 60, 3-(3,5-dimethoxyphenyl)-2-{4-[4-(3-oxo-3-ureidopropyl)-phenoxy]-phenyl}-N-pyridin-4-ylacrylamide], in the data set with 3T3-L1 adipocytes [6], the activity at 0.1 µM was found to be 93%, the activity at 1 µM is 120% and the activity at 10 µM is 229%.

Turning to `COc1cc(/C=C(/C(=O)Nc2ccc(Cl)cc2)c2ccc(Oc3ccc(CCC(=O)NC(N)=O)cc3)cc2)cc(OC)c1` [Compound 61, N-(4-chlorophenyl)-3-(3,5-dimethoxyphenyl)-2-{4-[4-(3-oxo-3-ureidopropyl)-phenoxy]-phenyl}-acrylamide], in the data set on 3T3-L1 adipocytes [6], the activity at 0.1 µM came out at 93%, the activity at 1 µM worked out at 120% and the activity at 10 µM was 229%.

In the case of `COc1cc(/C=C(/C(=O)N(C)C)c2ccc(Oc3ccc(CCC(=O)NCC(=O)N4CCOCC4)cc3)cc2)cc(OC)c1` [Compound 63, 3-(3,5-Dimethoxyphenyl)-N,N-dimethyl-2-(4-{4-[2-(2-morpholin-4-yl-2-oxoethylcarbamoyl)-ethyl]-phenoxy}-phenyl)-acrylamide], in the data set with 3T3-L1 adipocytes [6], the activity at 0.1 µM was determined as 107%, the activity at 1 µM was 112% and the activity at 10 µM came out at 139%.

Take `COc1cc(/C=C(/C(=O)N(C)C)c2ccc(Oc3ccc(CCC(=O)N4CCN(C)CC4)cc3)cc2)cc(OC)c1` [Compound 64, 3-(3,5-dimethoxyphenyl)-N,N-dimethyl-2-(4-{4-[3-(4-methylpiperazin-1-yl)-3-oxopropyl]-phenoxy}-phenyl)-acrylamide]: in the data set with 3T3-L1 adipocytes [6], the activity at 0.1 µM came to 108%, the activity at 1 µM was determined as 113% and the activity at 10 µM turned out to be 127%.

As for `CN(C)C(=O)/C(=C/c1cccnc1)c1ccc(Oc2ccc(CCC(N)=O)cc2)cc1` [Compound 77, 2-{4-[4-(2-carbamoyl-ethyl)-phenoxy]-phenyl}-N,N-dimethyl-3-pyridin-3-yl-acrylamide], the “inhibition of LPS-induced TNF-alpha production in mice” value in the data set on TNF-alpha [7] is “significantly inhibited”.
